{"source": "ChEMBL document CHEMBL5442219", "details_in_all_cases": "Compound concentration 10 µM", "key": {"[1]": {"molecular_target": "T1, Alpha-1A adrenergic receptor (Homo sapiens) (UniProt P35348)", "T1 sequence (whole entry)": "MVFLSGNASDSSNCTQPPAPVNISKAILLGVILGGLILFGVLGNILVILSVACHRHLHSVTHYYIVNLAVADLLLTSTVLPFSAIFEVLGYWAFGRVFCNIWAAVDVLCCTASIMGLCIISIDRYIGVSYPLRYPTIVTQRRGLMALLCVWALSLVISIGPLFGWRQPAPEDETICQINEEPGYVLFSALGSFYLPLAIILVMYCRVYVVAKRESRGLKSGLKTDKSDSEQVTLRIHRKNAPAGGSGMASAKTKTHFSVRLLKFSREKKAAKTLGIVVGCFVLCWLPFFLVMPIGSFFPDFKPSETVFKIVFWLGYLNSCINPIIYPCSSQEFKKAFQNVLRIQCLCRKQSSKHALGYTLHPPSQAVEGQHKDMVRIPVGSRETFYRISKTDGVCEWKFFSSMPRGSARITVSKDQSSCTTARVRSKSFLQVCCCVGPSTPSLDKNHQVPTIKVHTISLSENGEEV", "description": "PDSP Primary Binding target: ADRA1A - Compounds are tested at 10 uM concentration, plate are incubated at room temperature in the dark for 90 minutes. Reaction are stopped by vacuum filtration onto 0.3% polyethyleneimine soaked filter mats using Filtermate harvester. Scintilation cocktail is then melted onto microwave-dried filters on a hot plate and the radio activity is counted in Microbia counter."}, "[2]": {"molecular_target": "T2, Muscarinic acetylcholine receptor M1 (Homo sapiens) (UniProt P11229)", "T2 sequence (whole entry)": "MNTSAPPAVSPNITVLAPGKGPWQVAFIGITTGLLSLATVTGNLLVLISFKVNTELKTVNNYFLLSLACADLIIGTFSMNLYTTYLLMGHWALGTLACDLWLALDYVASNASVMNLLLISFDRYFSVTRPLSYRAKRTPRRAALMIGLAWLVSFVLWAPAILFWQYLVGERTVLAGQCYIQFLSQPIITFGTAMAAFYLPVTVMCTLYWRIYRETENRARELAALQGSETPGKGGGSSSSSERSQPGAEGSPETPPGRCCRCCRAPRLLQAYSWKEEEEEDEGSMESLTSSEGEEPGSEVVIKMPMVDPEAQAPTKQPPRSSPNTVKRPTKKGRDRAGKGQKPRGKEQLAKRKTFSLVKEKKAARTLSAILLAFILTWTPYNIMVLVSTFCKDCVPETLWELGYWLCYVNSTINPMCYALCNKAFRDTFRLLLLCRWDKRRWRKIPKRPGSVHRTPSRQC", "description": "PDSP Primary Binding target: CHRM1 - Compounds are tested at 10 uM concentration, plate are incubated at room temperature in the dark for 90 minutes. Reaction are stopped by vacuum filtration onto 0.3% polyethyleneimine soaked filter mats using Filtermate harvester. Scintilation cocktail is then melted onto microwave-dried filters on a hot plate and the radio activity is counted in Microbia counter."}, "[3]": {"molecular_target": "D(1A) dopamine receptor (Homo sapiens) (UniProt P21728)", "description": "PDSP Primary Binding target: DRD1 - Compounds are tested at 10 uM concentration, plate are incubated at room temperature in the dark for 90 minutes. Reaction are stopped by vacuum filtration onto 0.3% polyethyleneimine soaked filter mats using Filtermate harvester. Scintilation cocktail is then melted onto microwave-dried filters on a hot plate and the radio activity is counted in Microbia counter."}, "[4]": {"molecular_target": "D(2) dopamine receptor (Homo sapiens) (UniProt P14416)", "sequence (P14416 whole entry)": "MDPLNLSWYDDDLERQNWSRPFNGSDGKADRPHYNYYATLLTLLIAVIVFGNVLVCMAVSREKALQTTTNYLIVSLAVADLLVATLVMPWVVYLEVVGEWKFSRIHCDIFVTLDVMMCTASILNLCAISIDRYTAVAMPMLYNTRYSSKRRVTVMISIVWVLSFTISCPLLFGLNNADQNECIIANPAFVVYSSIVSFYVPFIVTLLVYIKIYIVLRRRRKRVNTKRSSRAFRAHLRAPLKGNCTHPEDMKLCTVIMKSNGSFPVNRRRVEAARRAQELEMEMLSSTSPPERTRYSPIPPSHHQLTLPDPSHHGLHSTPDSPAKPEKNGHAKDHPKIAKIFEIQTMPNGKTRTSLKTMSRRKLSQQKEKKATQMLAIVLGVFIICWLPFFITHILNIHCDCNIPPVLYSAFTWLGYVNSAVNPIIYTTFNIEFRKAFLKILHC", "description": "PDSP Primary Binding target: DRD2 - Compounds are tested at 10 uM concentration, plate are incubated at room temperature in the dark for 90 minutes. Reaction are stopped by vacuum filtration onto 0.3% polyethyleneimine soaked filter mats using Filtermate harvester. Scintilation cocktail is then melted onto microwave-dried filters on a hot plate and the radio activity is counted in Microbia counter."}, "[5]": {"molecular_target": "D(3) dopamine receptor (Homo sapiens) (UniProt P35462)", "sequence (P35462 whole entry)": "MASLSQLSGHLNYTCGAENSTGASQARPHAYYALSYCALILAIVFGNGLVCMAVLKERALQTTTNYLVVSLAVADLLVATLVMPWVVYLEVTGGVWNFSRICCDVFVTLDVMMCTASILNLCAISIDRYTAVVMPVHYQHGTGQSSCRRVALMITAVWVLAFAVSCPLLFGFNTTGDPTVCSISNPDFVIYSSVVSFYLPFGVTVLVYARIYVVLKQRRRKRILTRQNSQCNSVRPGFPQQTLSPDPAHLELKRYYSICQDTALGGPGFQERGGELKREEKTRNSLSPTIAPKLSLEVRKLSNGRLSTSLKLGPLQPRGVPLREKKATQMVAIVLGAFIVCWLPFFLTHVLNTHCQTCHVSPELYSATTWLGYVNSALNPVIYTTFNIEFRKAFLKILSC", "description": "PDSP Primary Binding target: DRD3 - Compounds are tested at 10 uM concentration, plate are incubated at room temperature in the dark for 90 minutes. Reaction are stopped by vacuum filtration onto 0.3% polyethyleneimine soaked filter mats using Filtermate harvester. Scintilation cocktail is then melted onto microwave-dried filters on a hot plate and the radio activity is counted in Microbia counter."}, "[6]": {"molecular_target": "Histamine H3 receptor (Homo sapiens) (UniProt Q9Y5N1)", "sequence (Q9Y5N1 whole entry)": "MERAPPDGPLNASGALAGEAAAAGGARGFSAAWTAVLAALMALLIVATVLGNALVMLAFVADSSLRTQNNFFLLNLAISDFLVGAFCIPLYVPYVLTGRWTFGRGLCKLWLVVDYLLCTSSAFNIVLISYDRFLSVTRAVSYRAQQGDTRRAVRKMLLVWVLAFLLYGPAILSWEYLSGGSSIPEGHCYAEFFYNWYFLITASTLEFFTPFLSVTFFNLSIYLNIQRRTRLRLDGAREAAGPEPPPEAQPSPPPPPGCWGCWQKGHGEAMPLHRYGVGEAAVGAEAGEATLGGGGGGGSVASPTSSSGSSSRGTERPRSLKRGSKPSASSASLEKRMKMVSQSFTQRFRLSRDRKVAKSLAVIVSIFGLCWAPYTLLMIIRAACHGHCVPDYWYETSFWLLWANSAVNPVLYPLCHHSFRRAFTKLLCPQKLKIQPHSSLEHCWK", "description": "PDSP Primary Binding target: HRH3 - Compounds are tested at 10 uM concentration, plate are incubated at room temperature in the dark for 90 minutes. Reaction are stopped by vacuum filtration onto 0.3% polyethyleneimine soaked filter mats using Filtermate harvester. Scintilation cocktail is then melted onto microwave-dried filters on a hot plate and the radio activity is counted in Microbia counter."}, "[7]": {"molecular_target": "T3, 5-hydroxytryptamine receptor 1A (Homo sapiens) (UniProt P08908)", "T3 sequence (whole entry)": "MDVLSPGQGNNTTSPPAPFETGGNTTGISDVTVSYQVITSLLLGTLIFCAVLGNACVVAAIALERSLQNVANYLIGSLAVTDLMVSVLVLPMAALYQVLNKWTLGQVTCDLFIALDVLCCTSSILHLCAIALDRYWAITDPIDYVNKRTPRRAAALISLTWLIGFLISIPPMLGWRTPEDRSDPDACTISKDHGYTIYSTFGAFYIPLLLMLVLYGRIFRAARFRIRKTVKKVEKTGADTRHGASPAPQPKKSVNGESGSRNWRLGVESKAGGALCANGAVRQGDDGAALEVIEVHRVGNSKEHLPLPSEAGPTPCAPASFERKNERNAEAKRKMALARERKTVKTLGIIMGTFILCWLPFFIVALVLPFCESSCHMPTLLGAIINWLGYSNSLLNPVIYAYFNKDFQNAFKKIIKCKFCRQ", "description": "PDSP Primary Binding target: HTR1A - Compounds are tested at 10 uM concentration, plate are incubated at room temperature in the dark for 90 minutes. Reaction are stopped by vacuum filtration onto 0.3% polyethyleneimine soaked filter mats using Filtermate harvester. Scintilation cocktail is then melted onto microwave-dried filters on a hot plate and the radio activity is counted in Microbia counter."}, "[8]": {"molecular_target": "5-hydroxytryptamine receptor 1B (Homo sapiens) (UniProt P28222)", "description": "PDSP Primary Binding target: HTR1B - Compounds are tested at 10 uM concentration, plate are incubated at room temperature in the dark for 90 minutes. Reaction are stopped by vacuum filtration onto 0.3% polyethyleneimine soaked filter mats using Filtermate harvester. Scintilation cocktail is then melted onto microwave-dried filters on a hot plate and the radio activity is counted in Microbia counter."}, "[9]": {"molecular_target": "5-hydroxytryptamine receptor 1D (Homo sapiens) (UniProt P28221)", "description": "PDSP Primary Binding target: HTR1D - Compounds are tested at 10 uM concentration, plate are incubated at room temperature in the dark for 90 minutes. Reaction are stopped by vacuum filtration onto 0.3% polyethyleneimine soaked filter mats using Filtermate harvester. Scintilation cocktail is then melted onto microwave-dried filters on a hot plate and the radio activity is counted in Microbia counter."}, "[10]": {"molecular_target": "5-hydroxytryptamine receptor 1E (Homo sapiens) (UniProt P28566)", "sequence (P28566 whole entry)": "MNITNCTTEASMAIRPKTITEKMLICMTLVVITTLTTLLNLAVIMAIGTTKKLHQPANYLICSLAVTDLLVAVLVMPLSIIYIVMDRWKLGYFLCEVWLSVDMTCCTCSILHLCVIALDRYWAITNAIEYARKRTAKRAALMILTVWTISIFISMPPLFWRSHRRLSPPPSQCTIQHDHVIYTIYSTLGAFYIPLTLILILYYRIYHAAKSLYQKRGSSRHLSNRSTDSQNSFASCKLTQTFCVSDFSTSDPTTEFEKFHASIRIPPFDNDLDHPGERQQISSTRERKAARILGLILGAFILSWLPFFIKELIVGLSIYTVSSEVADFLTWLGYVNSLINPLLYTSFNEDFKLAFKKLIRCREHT", "description": "PDSP Primary Binding target: HTR1E - Compounds are tested at 10 uM concentration, plate are incubated at room temperature in the dark for 90 minutes. Reaction are stopped by vacuum filtration onto 0.3% polyethyleneimine soaked filter mats using Filtermate harvester. Scintilation cocktail is then melted onto microwave-dried filters on a hot plate and the radio activity is counted in Microbia counter."}, "[11]": {"molecular_target": "5-hydroxytryptamine receptor 2A (Homo sapiens) (UniProt P28223)", "sequence (P28223 whole entry)": "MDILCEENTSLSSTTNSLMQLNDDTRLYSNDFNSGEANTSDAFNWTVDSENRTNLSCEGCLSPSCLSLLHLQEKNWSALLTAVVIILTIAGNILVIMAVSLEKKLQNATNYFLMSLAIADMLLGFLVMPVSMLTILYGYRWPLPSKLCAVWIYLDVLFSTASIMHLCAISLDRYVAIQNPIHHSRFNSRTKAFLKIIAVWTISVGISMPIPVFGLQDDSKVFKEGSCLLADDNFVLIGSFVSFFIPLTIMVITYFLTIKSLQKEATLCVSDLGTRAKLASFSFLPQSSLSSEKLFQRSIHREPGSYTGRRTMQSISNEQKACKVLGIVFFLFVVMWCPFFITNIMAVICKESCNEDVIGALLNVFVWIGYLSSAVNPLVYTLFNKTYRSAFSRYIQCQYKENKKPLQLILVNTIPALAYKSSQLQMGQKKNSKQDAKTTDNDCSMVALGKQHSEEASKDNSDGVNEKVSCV", "description": "PDSP Primary Binding target: HTR2A - Compounds are tested at 10 uM concentration, plate are incubated at room temperature in the dark for 90 minutes. Reaction are stopped by vacuum filtration onto 0.3% polyethyleneimine soaked filter mats using Filtermate harvester. Scintilation cocktail is then melted onto microwave-dried filters on a hot plate and the radio activity is counted in Microbia counter."}, "[12]": {"molecular_target": "5-hydroxytryptamine receptor 2B (Homo sapiens) (UniProt P41595)", "sequence (P41595 whole entry)": "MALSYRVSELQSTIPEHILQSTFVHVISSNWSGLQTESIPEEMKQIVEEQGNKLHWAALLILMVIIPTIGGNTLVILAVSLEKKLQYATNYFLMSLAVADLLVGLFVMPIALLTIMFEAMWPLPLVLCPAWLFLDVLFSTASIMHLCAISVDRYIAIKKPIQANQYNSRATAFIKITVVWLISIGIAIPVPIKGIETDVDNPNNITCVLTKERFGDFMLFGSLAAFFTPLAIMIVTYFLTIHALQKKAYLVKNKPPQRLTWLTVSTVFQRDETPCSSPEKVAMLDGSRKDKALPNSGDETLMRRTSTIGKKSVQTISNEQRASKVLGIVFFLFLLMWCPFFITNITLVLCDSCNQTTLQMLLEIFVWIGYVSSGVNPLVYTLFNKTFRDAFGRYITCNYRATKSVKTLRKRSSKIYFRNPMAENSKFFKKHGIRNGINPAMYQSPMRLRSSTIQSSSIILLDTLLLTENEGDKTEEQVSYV", "description": "PDSP Primary Binding target: HTR2B - Compounds are tested at 10 uM concentration, plate are incubated at room temperature in the dark for 90 minutes. Reaction are stopped by vacuum filtration onto 0.3% polyethyleneimine soaked filter mats using Filtermate harvester. Scintilation cocktail is then melted onto microwave-dried filters on a hot plate and the radio activity is counted in Microbia counter."}, "[13]": {"molecular_target": "T4, 5-hydroxytryptamine receptor 2C (Homo sapiens) (UniProt P28335)", "T4 sequence (whole entry)": "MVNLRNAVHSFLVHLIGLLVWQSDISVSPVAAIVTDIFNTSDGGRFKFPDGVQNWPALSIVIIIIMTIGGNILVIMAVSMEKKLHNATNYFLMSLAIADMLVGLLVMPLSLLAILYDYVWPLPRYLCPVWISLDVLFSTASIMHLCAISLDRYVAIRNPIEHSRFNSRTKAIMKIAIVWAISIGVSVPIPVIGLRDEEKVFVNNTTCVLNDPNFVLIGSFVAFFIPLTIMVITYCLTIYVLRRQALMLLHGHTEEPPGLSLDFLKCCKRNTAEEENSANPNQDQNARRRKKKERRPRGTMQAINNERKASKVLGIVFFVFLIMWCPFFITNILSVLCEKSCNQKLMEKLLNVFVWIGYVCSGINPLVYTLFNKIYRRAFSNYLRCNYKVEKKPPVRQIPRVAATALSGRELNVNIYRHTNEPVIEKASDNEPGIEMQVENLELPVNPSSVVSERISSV", "description": "PDSP Primary Binding target: HTR2C - Compounds are tested at 10 uM concentration, plate are incubated at room temperature in the dark for 90 minutes. Reaction are stopped by vacuum filtration onto 0.3% polyethyleneimine soaked filter mats using Filtermate harvester. Scintilation cocktail is then melted onto microwave-dried filters on a hot plate and the radio activity is counted in Microbia counter."}, "[14]": {"molecular_target": "5-hydroxytryptamine receptor 5A (Homo sapiens) (UniProt P47898)", "description": "PDSP Primary Binding target: HTR5A - Compounds are tested at 10 uM concentration, plate are incubated at room temperature in the dark for 90 minutes. Reaction are stopped by vacuum filtration onto 0.3% polyethyleneimine soaked filter mats using Filtermate harvester. Scintilation cocktail is then melted onto microwave-dried filters on a hot plate and the radio activity is counted in Microbia counter."}, "[15]": {"molecular_target": "5-hydroxytryptamine receptor 7 (Homo sapiens) (UniProt P34969)", "description": "PDSP Primary Binding target: HTR7 - Compounds are tested at 10 uM concentration, plate are incubated at room temperature in the dark for 90 minutes. Reaction are stopped by vacuum filtration onto 0.3% polyethyleneimine soaked filter mats using Filtermate harvester. Scintilation cocktail is then melted onto microwave-dried filters on a hot plate and the radio activity is counted in Microbia counter."}, "[16]": {"molecular_target": "Mu-type opioid receptor (Homo sapiens) (UniProt P35372)", "sequence (P35372 whole entry)": "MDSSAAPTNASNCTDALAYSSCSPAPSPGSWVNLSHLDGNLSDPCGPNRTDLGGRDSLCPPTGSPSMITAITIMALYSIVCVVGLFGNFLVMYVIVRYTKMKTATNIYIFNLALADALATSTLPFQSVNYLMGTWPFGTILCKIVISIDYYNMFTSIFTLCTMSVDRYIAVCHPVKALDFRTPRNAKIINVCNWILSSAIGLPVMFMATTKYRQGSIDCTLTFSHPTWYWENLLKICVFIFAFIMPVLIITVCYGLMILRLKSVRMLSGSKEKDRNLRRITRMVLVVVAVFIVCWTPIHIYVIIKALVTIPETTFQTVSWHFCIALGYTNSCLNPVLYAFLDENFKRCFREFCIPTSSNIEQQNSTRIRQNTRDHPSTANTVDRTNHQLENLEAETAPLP", "description": "PDSP Primary Binding target: OPRM1 - Compounds are tested at 10 uM concentration, plate are incubated at room temperature in the dark for 90 minutes. Reaction are stopped by vacuum filtration onto 0.3% polyethyleneimine soaked filter mats using Filtermate harvester. Scintilation cocktail is then melted onto microwave-dried filters on a hot plate and the radio activity is counted in Microbia counter."}, "[17]": {"molecular_target": "Sigma non-opioid intracellular receptor 1 (Homo sapiens) (UniProt Q99720)", "sequence (Q99720 whole entry)": "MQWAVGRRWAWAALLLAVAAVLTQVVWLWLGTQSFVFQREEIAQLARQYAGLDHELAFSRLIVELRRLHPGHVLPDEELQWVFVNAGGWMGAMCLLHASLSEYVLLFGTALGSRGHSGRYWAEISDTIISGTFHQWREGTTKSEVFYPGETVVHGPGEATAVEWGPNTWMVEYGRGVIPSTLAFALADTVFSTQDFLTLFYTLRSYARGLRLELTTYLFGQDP", "description": "PDSP Primary Binding target: SIGMAR1 - Compounds are tested at 10 uM concentration, plate are incubated at room temperature in the dark for 90 minutes. Reaction are stopped by vacuum filtration onto 0.3% polyethyleneimine soaked filter mats using Filtermate harvester. Scintilation cocktail is then melted onto microwave-dried filters on a hot plate and the radio activity is counted in Microbia counter."}, "[18]": {"molecular_target": "Sodium-dependent dopamine transporter (Homo sapiens) (UniProt Q01959)", "sequence (Q01959 whole entry)": "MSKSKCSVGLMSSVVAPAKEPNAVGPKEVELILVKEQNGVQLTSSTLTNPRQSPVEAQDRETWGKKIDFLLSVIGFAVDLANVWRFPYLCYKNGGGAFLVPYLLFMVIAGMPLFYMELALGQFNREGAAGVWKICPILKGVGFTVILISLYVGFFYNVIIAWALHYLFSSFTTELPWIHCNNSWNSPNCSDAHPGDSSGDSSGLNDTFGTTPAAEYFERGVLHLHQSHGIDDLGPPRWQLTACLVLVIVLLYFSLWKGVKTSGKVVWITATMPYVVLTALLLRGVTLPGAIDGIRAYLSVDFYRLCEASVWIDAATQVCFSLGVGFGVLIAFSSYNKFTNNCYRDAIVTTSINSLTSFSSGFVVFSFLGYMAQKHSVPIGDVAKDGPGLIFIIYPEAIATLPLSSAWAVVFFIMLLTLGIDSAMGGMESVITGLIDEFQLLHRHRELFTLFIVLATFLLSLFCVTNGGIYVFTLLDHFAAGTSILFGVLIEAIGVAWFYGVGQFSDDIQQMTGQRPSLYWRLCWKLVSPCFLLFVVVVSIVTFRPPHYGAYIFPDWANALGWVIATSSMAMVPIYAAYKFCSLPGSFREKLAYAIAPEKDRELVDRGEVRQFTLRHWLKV", "description": "PDSP Primary Binding target: SLC6A3 - Compounds are tested at 10 uM concentration, plate are incubated at room temperature in the dark for 90 minutes. Reaction are stopped by vacuum filtration onto 0.3% polyethyleneimine soaked filter mats using Filtermate harvester. Scintilation cocktail is then melted onto microwave-dried filters on a hot plate and the radio activity is counted in Microbia counter."}, "[19]": {"molecular_target": "Sodium-dependent serotonin transporter (Homo sapiens) (UniProt P31645)", "sequence (P31645 whole entry, looked up)": "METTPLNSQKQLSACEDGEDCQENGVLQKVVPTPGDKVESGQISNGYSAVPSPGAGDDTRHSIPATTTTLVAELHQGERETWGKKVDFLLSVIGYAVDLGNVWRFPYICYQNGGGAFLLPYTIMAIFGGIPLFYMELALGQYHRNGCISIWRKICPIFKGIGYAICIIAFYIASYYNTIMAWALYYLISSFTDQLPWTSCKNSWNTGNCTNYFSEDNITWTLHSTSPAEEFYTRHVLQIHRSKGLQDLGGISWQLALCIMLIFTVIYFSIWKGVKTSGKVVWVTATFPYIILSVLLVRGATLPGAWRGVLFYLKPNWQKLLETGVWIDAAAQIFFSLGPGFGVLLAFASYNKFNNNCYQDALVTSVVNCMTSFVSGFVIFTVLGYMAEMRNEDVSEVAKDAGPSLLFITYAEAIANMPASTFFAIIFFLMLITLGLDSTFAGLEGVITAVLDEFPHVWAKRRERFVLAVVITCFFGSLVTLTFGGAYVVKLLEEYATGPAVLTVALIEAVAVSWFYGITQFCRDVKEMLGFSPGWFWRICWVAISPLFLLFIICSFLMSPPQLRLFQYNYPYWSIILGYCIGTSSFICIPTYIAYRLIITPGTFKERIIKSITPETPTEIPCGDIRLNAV", "description": "PDSP Primary Binding target: SLC6A4 - Compounds are tested at 10 uM concentration, plate are incubated at room temperature in the dark for 90 minutes. Reaction are stopped by vacuum filtration onto 0.3% polyethyleneimine soaked filter mats using Filtermate harvester. Scintilation cocktail is then melted onto microwave-dried filters on a hot plate and the radio activity is counted in Microbia counter."}, "[20]": {"molecular_target": "Sigma intracellular receptor 2 (Homo sapiens) (UniProt Q5BJF2)", "sequence (Q5BJF2 whole entry)": "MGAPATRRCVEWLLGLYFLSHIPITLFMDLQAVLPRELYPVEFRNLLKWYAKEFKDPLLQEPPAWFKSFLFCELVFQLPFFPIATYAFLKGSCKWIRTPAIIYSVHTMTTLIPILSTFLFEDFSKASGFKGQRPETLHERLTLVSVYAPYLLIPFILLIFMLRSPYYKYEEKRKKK", "description": "PDSP Primary Binding target: TMEM97 - Compounds are tested at 10 uM concentration, plate are incubated at room temperature in the dark for 90 minutes. Reaction are stopped by vacuum filtration onto 0.3% polyethyleneimine soaked filter mats using Filtermate harvester. Scintilation cocktail is then melted onto microwave-dried filters on a hot plate and the radio activity is counted in Microbia counter."}}, "data": [{"smiles": "CN1CCCC(n2nc(Cc3ccc(Cl)cc3)c3ccccc3c2=O)CC1", "note": "(stereo not given)", "values": [{"measurement": "inhibition", "setting": "[1]", "result": 87.7, "unit": "%"}, {"measurement": "inhibition", "setting": "[2]", "result": 82.9, "unit": "%"}, {"measurement": "inhibition", "setting": "[3]", "result": 57.1, "unit": "%"}, {"measurement": "inhibition", "setting": "[4]", "result": 79.1, "unit": "%"}, {"measurement": "inhibition", "setting": "[5]", "result": 83.9, "unit": "%"}, {"measurement": "inhibition", "setting": "[6]", "result": 28.5, "unit": "%"}, {"measurement": "inhibition", "setting": "[7]", "result": 5.72, "unit": "%"}, {"measurement": "inhibition", "setting": "[8]", "result": 66.5, "unit": "%"}, {"measurement": "inhibition", "setting": "[9]", "result": 57.9, "unit": "%"}, {"measurement": "inhibition", "setting": "[10]", "result": 57.6, "unit": "%"}, {"measurement": "inhibition", "setting": "[11]", "result": 96.7, "unit": "%"}, {"measurement": "inhibition", "setting": "[12]", "result": 89.5, "unit": "%"}, {"measurement": "inhibition", "setting": "[13]", "result": 93.7, "unit": "%"}, {"measurement": "inhibition", "setting": "[14]", "result": 80.8, "unit": "%"}, {"measurement": "inhibition", "setting": "[15]", "result": 80.4, "unit": "%"}, {"measurement": "inhibition", "setting": "[16]", "result": 29.4, "unit": "%"}, {"measurement": "inhibition", "setting": "[17]", "result": 91.9, "unit": "%"}, {"measurement": "inhibition", "setting": "[18]", "result": 25.9, "unit": "%"}, {"measurement": "inhibition", "setting": "[19]", "result": 19.8, "unit": "%"}, {"measurement": "inhibition", "setting": "[20]", "result": 97, "unit": "%"}]}]}
